Data taken from patent US5587475A, “Derivatized virginiamycin M1” (University of Notre Dame, priority 1995, dated 1996).

Key:
ribosomes = experiment: in vitro activity: binding to free ribosomes, VS1 fluorescence with erythromycin displacement; set-up: key to kobs (symbol): (*) too small to be measured. t/2 is very large; conditions: together with VS1, fluorescence
Description: The in vivo tests were carried out using Micrococcus luteus as the test organism with the VM1 derivatives alone (without VS1). Minimum inhibitory concentrations (MIC values) were determined on agar broth plates by standard microbiological procedures, with a range of concentrations of the VM derivatives applied to the plates. The in vitro tests of the VM derivatives were performed together with VS1, and took advantage of the unique fluorescence (F) inherent in VS1. […] Using spectrofluorometry, an increase in fluorescence can be measured when ribosomes are added to a VS1 solution. Erythromycin is known to bind at the same position on the ribosome (50-S subunit) as VS1, and when it is added to the VS1 /ribosomal mixture, a decrease in fluorescence is seen. If VM1 is added to the VS1 /ribosomal/erythromycin mixture, an increase in fluorescence can be measured. Presumably, a conformational change of the ribosomes occurs upon binding of VM1, which allows VS1 to bind preferentially and releases erythromycin from the ribosomes. The VM1 derivatives would also display this type of behavior if they bind to the ribosomes.

Micrococcus luteus = experiment: in vivo activity, M.I.C. on M. luteus (VM1 derivatives alone, without VS1); format: cell-based; set-up: key: (+) indicates multiplication of bacteria; conditions: M. luteus in LBroth, 18 h at 37° C. with shaking
Description: The synthesized derivatives of the present invention have been tested for antibacterial activity (in solid and liquid medium), ribosome binding affinity and synergistic activity with virginiamycin S. The tests for biological activity were carried out both in vivo and in vitro. The in vivo tests were carried out using Micrococcus luteus as the test organism with the VM1 derivatives alone (without VS1). Minimum inhibitory concentrations (MIC values) were determined on agar broth plates by standard microbiological procedures, with a range of concentrations of the VM derivatives applied to the plates. The in vitro tests of the VM derivatives were performed together with VS1, and took advantage of the unique fluorescence (F) inherent in VS1. The results are summarized in the following tables, wherein the activities are compared to virginiamycin (VM1). | M. luteus in LBroth, 18 h at 37° C. with shaking. | M. luteus in LBroth, 18 h at 37° C. with shaking.

[1] = in vitro Activity of VM1-Carboxylic Acid Derivatives
[2] = in vitro Activity of VM1-Ester Derivatives

| kobs (ribosomes; [1]) | t/2 (ribosomes; [1]) | kobs (ribosomes; [2]) | t/2 (ribosomes; [2]) | Structure (SMILES) | in vivo Acitivity of VM1-Carboxylic Derivatives, M.I.C. on M. luteus (multiplication of bacteria) (Micrococcus luteus; Concentration 0.0625 μg/mL) | in vivo Acitivity of VM1-Carboxylic Derivatives, M.I.C. on M. luteus (multiplication of bacteria) (Micrococcus luteus; Concentration 0.125 μg/mL) | in vivo Acitivity of VM1-Carboxylic Derivatives, M.I.C. on M. luteus (multiplication of bacteria) (Micrococcus luteus; Concentration 0.25 μg/mL) | in vivo Activity of VM1-Ester Derivatives, M.I.C. on M. luteus (multiplication of bacteria) (Micrococcus luteus; Concentration 0.0625 μg/mL) | in vivo Activity of VM1-Ester Derivatives, M.I.C. on M. luteus (multiplication of bacteria) (Micrococcus luteus; Concentration 0.125 μg/mL) | in vivo Activity of VM1-Ester Derivatives, M.I.C. on M. luteus (multiplication of bacteria) (Micrococcus luteus; Concentration 0.25 μg/mL) | in vivo Activity of VM1-Ester Derivatives, M.I.C. on M. luteus (multiplication of bacteria) (Micrococcus luteus; Concentration 0.5 μg/mL) | in vivo Activity of VM1-Ester Derivatives, M.I.C. on M. luteus (multiplication of bacteria) (Micrococcus luteus; Concentration 1 μg/mL) | in vivo Activity of VM1-Ester Derivatives, M.I.C. on M. luteus (multiplication of bacteria) (Micrococcus luteus; Concentration 2 μg/mL) | in vivo Activity of VM1-Ester Derivatives, M.I.C. on M. luteus (multiplication of bacteria) (Micrococcus luteus; Concentration 4 μg/mL) | also measured |
| --- | --- | --- | --- | --- | --- | --- | --- | --- | --- | --- | --- | --- | --- | --- | --- |
|  |  | 0.0009 s⁻¹ | 721 s | CC1=C\[C@@H](O)CC(=O)Cc2nc(co2)C(=O)N2CC[C@H](SCCC(=O)OCC(Cl)(Cl)Cl)[C@H]2C(=O)O[C@H](C(C)C)[C@H](C)/C=C/C(=O)NC\C=C\1 [Ester b S,R] |  |  |  | + | + | + | + | + | + | + | in vivo Activity of VM1-Ester Derivatives, M.I.C. on M. luteus (multiplication of bacteria) (Micrococcus luteus; Concentration 8 μg/mL): + |
|  |  | 0.020 s⁻¹ | 34.1 s | CC1=C\[C@@H](O)CC(=O)Cc2nc(co2)C(=O)N2CC[C@@H](SCCCCC(=O)OCC(Cl)(Cl)Cl)[C@@H]2C(=O)O[C@H](C(C)C)[C@H](C)/C=C/C(=O)NC\C=C\1 [Ester c R,S] |  |  |  | + | + | + | + | + | + | + |  |
| 0.068 s⁻¹ | 10.2 s | 0.068 s⁻¹ | 10.2 s | CC1=C\[C@@H](O)CC(=O)Cc2nc(co2)C(=O)N2CCC=C2C(=O)O[C@H](C(C)C)[C@H](C)/C=C/C(=O)NC\C=C\1 [VM1, virginiamycin M1] | + |  |  | + |  |  |  |  |  |  |  |

Continued, compound first:

| Structure (SMILES) | kobs (ribosomes; [1]) | t/2 (ribosomes; [1]) | kobs (ribosomes; [2]) | t/2 (ribosomes; [2]) | in vivo Acitivity of VM1-Carboxylic Derivatives, M.I.C. on M. luteus (multiplication of bacteria) (Micrococcus luteus; Concentration 0.0625 μg/mL) | in vivo Acitivity of VM1-Carboxylic Derivatives, M.I.C. on M. luteus (multiplication of bacteria) (Micrococcus luteus; Concentration 0.125 μg/mL) | in vivo Acitivity of VM1-Carboxylic Derivatives, M.I.C. on M. luteus (multiplication of bacteria) (Micrococcus luteus; Concentration 0.25 μg/mL) | in vivo Activity of VM1-Ester Derivatives, M.I.C. on M. luteus (multiplication of bacteria) (Micrococcus luteus; Concentration 0.0625 μg/mL) | in vivo Activity of VM1-Ester Derivatives, M.I.C. on M. luteus (multiplication of bacteria) (Micrococcus luteus; Concentration 0.125 μg/mL) | in vivo Activity of VM1-Ester Derivatives, M.I.C. on M. luteus (multiplication of bacteria) (Micrococcus luteus; Concentration 0.25 μg/mL) | in vivo Activity of VM1-Ester Derivatives, M.I.C. on M. luteus (multiplication of bacteria) (Micrococcus luteus; Concentration 0.5 μg/mL) | in vivo Activity of VM1-Ester Derivatives, M.I.C. on M. luteus (multiplication of bacteria) (Micrococcus luteus; Concentration 1 μg/mL) | in vivo Activity of VM1-Ester Derivatives, M.I.C. on M. luteus (multiplication of bacteria) (Micrococcus luteus; Concentration 2 μg/mL) | in vivo Activity of VM1-Ester Derivatives, M.I.C. on M. luteus (multiplication of bacteria) (Micrococcus luteus; Concentration 4 μg/mL) | also measured |
| --- | --- | --- | --- | --- | --- | --- | --- | --- | --- | --- | --- | --- | --- | --- | --- |
| CC1=C\[C@@H](O)CC(=O)Cc2nc(co2)C(=O)N2CC[C@@H](SCCC(=O)O)[C@@H]2C(=O)O[C@H](C(C)C)[C@H](C)/C=C/C(=O)NC\C=C\1 [Carboxylic b R,S] | 0.003 s⁻¹ | 229 s |  |  | + | + | + |  |  |  |  |  |  |  | in vivo Acitivity of VM1-Carboxylic Derivatives, M.I.C. on M. luteus (multiplication of bacteria) (Micrococcus luteus; Concentration 0.5 μg/mL): +; in vivo Acitivity of VM1-Carboxylic Derivatives, M.I.C. on M. luteus (multiplication of bacteria) (Micrococcus luteus; Concentration 1 μg/mL): +; in vivo Acitivity of VM1-Carboxylic Derivatives, M.I.C. on M. luteus (multiplication of bacteria) (Micrococcus luteus; Concentration 2 μg/mL): +; in vivo Acitivity of VM1-Carboxylic Derivatives, M.I.C. on M. luteus (multiplication of bacteria) (Micrococcus luteus; Concentration 4 μg/mL): +; in vivo Acitivity of VM1-Carboxylic Derivatives, M.I.C. on M. luteus (multiplication of bacteria) (Micrococcus luteus; Concentration 8 μg/mL): +; in vivo Acitivity of VM1-Carboxylic Derivatives, M.I.C. on M. luteus (multiplication of bacteria) (Micrococcus luteus; Concentration 16 μg/mL): +; in vivo Acitivity of VM1-Carboxylic Derivatives, M.I.C. on M. luteus (multiplication of bacteria) (Micrococcus luteus; Concentration 32 μg/mL): + |
| CC1=C\[C@@H](O)CC(=O)Cc2nc(co2)C(=O)N2CC[C@@H](SCC(=O)OCC(Cl)(Cl)Cl)[C@@H]2C(=O)O[C@H](C(C)C)[C@H](C)/C=C/C(=O)NC\C=C\1 [Ester a R,S] |  |  | 0.019 s⁻¹ | 35.6 s |  |  |  | + | + | + |  |  |  |  |  |
| CC1=C\[C@@H](O)CC(=O)Cc2nc(co2)C(=O)N2CC[C@@H](SCCCCC(=O)O)[C@@H]2C(=O)O[C@H](C(C)C)[C@H](C)/C=C/C(=O)NC\C=C\1 [Carboxylic c R,S] | 0.019 s⁻¹ | 38.7 s |  |  | + | + | + |  |  |  |  |  |  |  |  |
| CC1=C\[C@@H](O)CC(=O)Cc2nc(co2)C(=O)N2CC[C@H](SCCCCC(=O)OCC(Cl)(Cl)Cl)[C@H]2C(=O)O[C@H](C(C)C)[C@H](C)/C=C/C(=O)NC\C=C\1 [Ester c S,R] |  |  |  |  |  |  |  | + | + | + | + | + | + | + | kobs (symbol) (ribosomes; [2]): *; in vivo Activity of VM1-Ester Derivatives, M.I.C. on M. luteus (multiplication of bacteria) (Micrococcus luteus; Concentration 8 μg/mL): + |
| CC1=C\[C@@H](O)CC(=O)Cc2nc(co2)C(=O)N2CC[C@H](SCCCCC(=O)O)[C@H]2C(=O)O[C@H](C(C)C)[C@H](C)/C=C/C(=O)NC\C=C\1 [Carboxylic c S,R] | 0.015 s⁻¹ | 46 s |  |  | + | + | + |  |  |  |  |  |  |  |  |
| CC1=C\[C@@H](O)CC(=O)Cc2nc(co2)C(=O)N2CC[C@H](SCC(=O)OCC(Cl)(Cl)Cl)[C@H]2C(=O)O[C@H](C(C)C)[C@H](C)/C=C/C(=O)NC\C=C\1 [Ester a S,R] |  |  |  |  |  |  |  | + | + | + | + | + | + | + | kobs (symbol) (ribosomes; [2]): *; in vivo Activity of VM1-Ester Derivatives, M.I.C. on M. luteus (multiplication of bacteria) (Micrococcus luteus; Concentration 8 μg/mL): +; in vivo Activity of VM1-Ester Derivatives, M.I.C. on M. luteus (multiplication of bacteria) (Micrococcus luteus; Concentration 16 μg/mL): + |
| CC1=C\[C@@H](O)CC(=O)Cc2nc(co2)C(=O)N2CC[C@@H](SCCC(=O)OCC(Cl)(Cl)Cl)[C@@H]2C(=O)O[C@H](C(C)C)[C@H](C)/C=C/C(=O)NC\C=C\1 [Ester b R,S] |  |  | 0.021 s⁻¹ | 32.7 s |  |  |  | + | + | + | + |  |  |  |  |
| CC1=C\[C@@H](O)CC(=O)Cc2nc(co2)C(=O)N2CC[C@H](SCCC(=O)O)[C@H]2C(=O)O[C@H](C(C)C)[C@H](C)/C=C/C(=O)NC\C=C\1 [Carboxylic b S,R] |  |  |  |  | + | + | + |  |  |  |  |  |  |  | kobs (symbol) (ribosomes; [1]): *; in vivo Acitivity of VM1-Carboxylic Derivatives, M.I.C. on M. luteus (multiplication of bacteria) (Micrococcus luteus; Concentration 0.5 μg/mL): +; in vivo Acitivity of VM1-Carboxylic Derivatives, M.I.C. on M. luteus (multiplication of bacteria) (Micrococcus luteus; Concentration 1 μg/mL): +; in vivo Acitivity of VM1-Carboxylic Derivatives, M.I.C. on M. luteus (multiplication of bacteria) (Micrococcus luteus; Concentration 2 μg/mL): +; in vivo Acitivity of VM1-Carboxylic Derivatives, M.I.C. on M. luteus (multiplication of bacteria) (Micrococcus luteus; Concentration 4 μg/mL): +; in vivo Acitivity of VM1-Carboxylic Derivatives, M.I.C. on M. luteus (multiplication of bacteria) (Micrococcus luteus; Concentration 8 μg/mL): +; in vivo Acitivity of VM1-Carboxylic Derivatives, M.I.C. on M. luteus (multiplication of bacteria) (Micrococcus luteus; Concentration 16 μg/mL): +; in vivo Acitivity of VM1-Carboxylic Derivatives, M.I.C. on M. luteus (multiplication of bacteria) (Micrococcus luteus; Concentration 32 μg/mL): +; in vivo Acitivity of VM1-Carboxylic Derivatives, M.I.C. on M. luteus (multiplication of bacteria) (Micrococcus luteus; Concentration 128 μg/mL): + |
| CC1=C\[C@@H](O)CC(=O)Cc2nc(co2)C(=O)N2CC[C@@H](SCC(=O)O)[C@@H]2C(=O)O[C@H](C(C)C)[C@H](C)/C=C/C(=O)NC\C=C\1 [Carboxylic a R,S] | .00047 s⁻¹ | 1487 s |  |  | + | + | + |  |  |  |  |  |  |  | in vivo Acitivity of VM1-Carboxylic Derivatives, M.I.C. on M. luteus (multiplication of bacteria) (Micrococcus luteus; Concentration 0.5 μg/mL): +; in vivo Acitivity of VM1-Carboxylic Derivatives, M.I.C. on M. luteus (multiplication of bacteria) (Micrococcus luteus; Concentration 1 μg/mL): +; in vivo Acitivity of VM1-Carboxylic Derivatives, M.I.C. on M. luteus (multiplication of bacteria) (Micrococcus luteus; Concentration 2 μg/mL): +; in vivo Acitivity of VM1-Carboxylic Derivatives, M.I.C. on M. luteus (multiplication of bacteria) (Micrococcus luteus; Concentration 4 μg/mL): +; in vivo Acitivity of VM1-Carboxylic Derivatives, M.I.C. on M. luteus (multiplication of bacteria) (Micrococcus luteus; Concentration 8 μg/mL): +; in vivo Acitivity of VM1-Carboxylic Derivatives, M.I.C. on M. luteus (multiplication of bacteria) (Micrococcus luteus; Concentration 16 μg/mL): + |
